Results from US12630523B2, “Isoquinoline derivatives for use as antiviral and antitumour agents” (priority 2021, dated 2026).

Tests used:
HPV16 E7 protein = molecular target: T1, HPV16 E7 protein (Human papillomavirus type 16, UniProt P03129); format: cell-based; conditions: CaSki cells; adjusted degradation, CHX steady state set to 100% degradation
T1 construct: endogenous in cells; host or cells: CaSki cells (HPV16-positive cervical carcinoma)
Method: For intracellular antibody labeling, 0.5×10^6 cells are washed once with 1 ml ice-cold PBS. Cells are centrifuged at 350×g for 5 minutes at 4° C. and then fixed in 1% paraformaldehyde (1 ml/10^6 cells) for 20 minutes at 4° C. Cells are washed with 1 ml ice-cold PBS and centrifuged at 350×g for 5 minutes at 4° C. To permeabilize cells, 100% ice-cold methanol (1 ml/10^6 cells) is added to the cells and incubated for 20 minutes at 4° C. followed by centrifugation at 350×g for 5 minutes at 4° C. Cells are washed with 1 ml ice-cold PBS, centrifuged at 350×g for 5 minutes at 4° C. and resuspended in 0.1% saponin+2% FBS in PBS (ice-cold). Cells are left for 20-30 minutes at room temperature to reduce the background signal and then centrifuged at 350×g for 5 minutes at 4° C. The primary antibody (mAb_HPV16E7-1 (VS13004); concentration 1 μg/μl) is diluted in 0.1% saponin+2% FBS (dilution 0.25 μg/50 μl of incubation buffer per 1×10^6 cells (5 ng/μl)). Cells are incubated with primary antibody for 30 minutes at room temperature, washed with 0.1% saponin+2% FBS and centrifuged at 350×g for 5 minutes at 4° C. The secondary antibody (FITC conjugated goat anti-mouse IgG1-IgM, BD, cat. #555988) is diluted in 0.1% saponin+2% FBS (dilution 1:50). Cells are incubated with secondary antibody for 30 minutes at room temperature, washed once with 0.1% saponin+2% FBS, once with PBS and centrifuged at 350×g for 5 minutes at 4° C.
Cells are resuspended in 700 μl PBS prior to CF analysis with a Beckman Coulter FC 500 MPL, (excitation laser 488 nm). Data analysis is done using the Beckman Coulter software packages MXP for acquisition and CXP for data analysis which includes MFI calculation. Detection of HPV-E7 protein expression is based on morphology back-gating of FL1 histogram (logarithmic scale) with gating for dot plot FS (Forward Scatter) log/SS (Sideward Scatter) log and gating for histograms SS log.
In order to define the level of E7 protein expression and to study the extent of E7 protein steady state level reduction in E7 expressing cells in the presence of various compounds, FC analysis is implemented using the intracellular antibody labeling procedure for monoclonal antibodies to HPV E7. E7 signal intensities are analyzed from the obtained FL1 histograms at logarithmic scale. The FL1 single histogram graph represents the variation in the mean fluorescence intensity (MFI) channel for cells treated with selected compounds compared to cells not incubated with primary antibodies but incubated with secondary, which allows to test for auto-fluorescence, and non-compound treated cells as controls. Non-primary antibody-stained cells are used to set the acquisition parameters to zero. Decrease of the mean fluorescence intensity channel corresponds to a decrease in the expression of HPV16 E7 protein. Degradation of E7 in cells is calculated as percent (%) reduction in MFI(x-Me) using the following formulas: % Drel=(T−C)/T*100; i) relative degradation: % Dad=(T−C)/(T−CHX)*100; ii) adjusted degradation: • Drel=relative degradation, • Dad=adjusted degradation assuming CHX % Drel=100; • T=MFI of non-treated cells; • C=MFI of compound treated cells; • CH=MFI of cycloheximide (CHX) treated cells;
For comparison within one experiment i) the % relative degradation (Drel) is sufficient, whereas for comparison between two or more experiments ii) the adjusted degradation (Dad) is used and CHX steady state is set to a 100% degradation parameter.
1×10^6 freshly seeded CaSki cells (ATCC CRL-7915), are grown in 10 cm diameter cell culture dishes in RPMI1640, 10% FCS medium at 37° C. 5% CO2 overnight and then incubated in the presence of 10 μM Cycloheximide (CHX) 10 μM OC246 or with vehicle alone for four hours at 37° C. 5% CO2. Following this E7 protein is assessed by cytofluorimetric analysis using intracellular HPV16 E7 antibody labeling. […]

CaSki cells = assay: Cell cycle analysis using Propidium-Iodide staining (flow cytometry); format: cell-based, human; conditions: 48 hour incubation; for A*/5 μM (apoptosis as measured from total SUB G1 content) / A*/10 μM (apoptosis as measured from total SUB G1 content): no treatment 15.0; for G2/5 μM / G1/5 μM / G2/10 μM / G1/10 μM: cell cycle distribution; for G2/5 μM / G2/10 μM: no treatment 15.6; for G1/5 μM / G1/10 μM: no treatment 53.3
Method: Propidium-Iodide (PI) DNA staining is performed to facilitate cell cycle analysis. For PI-DNA staining, fixed cells and eventually antibody-stained cells are resuspended in 450 μl of PBS (per 10^6 cells) and incubated with 100 μg/ml RNase (stock 1 mg/ml, in PBS) for 10 minutes at 37° C. Cells are then incubated with 5 μg/106 cells of PI (stock 1 mg/ml in PBS) for 10 minutes at room temperature. Samples are stored at 4° C. until CF analysis.
CaSki cells were incubated with various compounds and cell cycle distribution of the cells was assessed using Propidium-Iodide staining.
In order to analyze the cytostatic versus the cytotoxic effect of OC compounds, cell cycle profiles were analyzed in vitro after 48 hour incubations using Flow Cytometry as a read out. For this a cell cycle analysis from selected OC E7 degrader compounds was conducted in CaSki cells. Using 6 well plates, 1.5×10^5 cells were seeded for each well and grown over night at 37° C. 5% CO2. For analysis of the cell cycle behavior, cells were analyzed in the presence of propidium Iodide (PI^−) by flow cytometry (FC). Briefly, cells were detached by trypsin digestion, all supernatants were included in the analysis, and fixed with 70% ice cold ethanol and stored at 4° C. until FC analysis using PI^− staining (1 mg/ml). At least 7000 events were acquired for each sample.

[1] = system: CaSki (ATCC CRM-CRL-1550); assay: Monolayer assay using Sulphorhodamine B (SRB) staining, CaSki; format: cell-based; conditions: Homo sapiens, Ca-Ski, read-out: EC50 mean [nM]
Method: Various cell culture cells grown as monolayers are harvested from exponential growing cultures after treatment with various OC compounds at different concentrations. For this depending on the cell line, 10.000 to 30.000 cells were plated in 96-well flat-bottom microtiter plates. After a 24 h recovery period to allow cells to resume exponential growth, supernatants are discarded and 100 μl of culture medium (eight control wells/plate) or culture medium with the test compound are added by a liquid handling robotic system (Microlab® Starlet, Hamilton) and treatment continued for 72 hrs. Compounds are applied at 9 concentrations and eight wells/concentration). At least three independent experiments are performed. For SRB staining, cells are fixed with SRB01 (Tab. 5) for 1 h at 4° C. (final concentration of TCA=10%) washed with a plate washer (Hydroflex, Tecan©) for five times with H2O; and stained with 100 μl of SRB02 at room temperature for 10 min following 4 washes in SRB03 and finally 100 μl of developer solution SRB04 for 5 minutes with shaking. Optical density is assessed using a plate-reader (Sunrise, Tecan©) at 540 nm.
Concentrations required for half maximal response of the compound for cell growth inhibition (EC50) is calculated by non-linear regression (log[conc. of inhibitor] versus response (% T/C)) using the analysis software GraphPad Prism®, Prism 5 for windows, version 5.01 (GraphPad Software Inc., CA).

[2] = system: SARS-CoV-2 isolate BetaCov/Belgium/GHB-03021/2020; assay: microbe, parasite or virus in culture; format: cell-based; conditions: 1.25 μM (non-toxic compound concentration), n4; for inhibition at 1.25 µM: Severe acute respiratory syndrome coronavirus 2
[3] = system: human cervical carcinoma (CaSki) xenograft; assay: CaSki high risk HPV16 human cervical carcinoma xenograft model; format: in vivo, nude mice
Method: The aim of this study was to assess the in vivo efficacy of OC246 and OC974 on a human cervical carcinoma (CaSki) xenograft model in nude mice. OC246 and OC974 were administered oral once daily for four times with three days off, for three cycles at 2 mg/kg/dose. Cisplatin (CDDP) was used as a reference compound with three weekly intravenous (q7dx3) administrations of 6 mg/kg.

[4] = system: cell signaling molecules (4E-BP1, p70 S6 kinase, Akt, PTPN14, p53, PD-L1); assay: Western blot of cell signaling molecules in CaSki cells; conditions: CaSki; for Phosphorylation of 4E-BP1 on Ser65 and the p70S6 kinase on Thr389: 6 h, order 10 μM VSP035, Torin 1, Torin 2, rapamycin, 5 μM VSP035, CGP 57380; for phosphorylation of AKT on Ser473: 6 h treatment

T1 sequence (P03129 whole entry): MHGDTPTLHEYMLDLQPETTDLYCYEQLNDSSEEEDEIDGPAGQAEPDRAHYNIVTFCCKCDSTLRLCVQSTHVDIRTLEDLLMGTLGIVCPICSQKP

Structure (SMILES) | % Dad (HPV16 E7 protein) [%] | A*/5 μM (apoptosis as measured from total SUB G1 content) (CaSki cells) [%] | A*/10 μM (apoptosis as measured from total SUB G1 content) (CaSki cells) [%] | G2/5 μM (CaSki cells) [%] | G1/5 μM (CaSki cells) [%] | G2/10 μM (CaSki cells) [%] | G1/10 μM (CaSki cells) [%] | EC50 [1] [nM] | inhibition at 1.25 µM [2] [%] | % TGI (Day 44): percentage tumor growth inhibition with respect to controls ([3]; OC246/OC974 os 2 mg/kg/day, 4 × week, 3 cycles, CDDP i.v. q7d × 3, 6 mg/kg) [%] | Δ% on Day 44 ([3]; OC246/OC974 os 2 mg/kg/day, CDDP i.v. 6 mg/kg, control 100) [%] | Tumor Volume Day 44 (mm^3 ± SD) ([3]; OC246/OC974 os daily 4 × week, 3 cycles, 2 mg/kg/day, CDDP i.v. q7d × 3, 6 mg/kg, control 1099 ± 503) [mm^3] | Δ% Body Weight ([3]; between first day of treatment (day 20) and Day 44, OC246/OC974 os 2 mg/kg/day, CDDP i.v. 6 mg/kg, control +4.9) [%] | % Inhibition [2] [%] | Phosphorylation of 4E-BP1 on Ser65 and the p70S6 kinase on Thr389 [4] | phosphorylation of AKT on Ser473 [4]
Cc1ccc(CN2C(=O)c3ccccc3[C@@H](C(=O)Nc3cccc(N4CCN(C)CC4)c3)[C@@H]2c2ccc(C(F)(F)F)nc2)cc1 (relative stereo) [OC968] | 37 | 11.9 | 11.6 | 18.0 | 52.7 | 19.7 | 48.0 | 10600 | 2.09 |  |  |  |  |  |  | 
Cc1ccc(CN2C(=O)c3ccccc3[C@@H](C(=O)Nc3ccc(N4CCN(C)CC4)cc3)[C@@H]2c2ccc(C(F)(F)F)cc2)cc1 (relative stereo) [OC972] | 32 | 12.8 | 13.5 | 16.9 | 53.2 | 15.9 | 48.4 | 67700 | 5.37 |  |  |  |  |  |  | 
Cc1ccc(CN2C(=O)c3ccccc3[C@@H](C(=O)Nc3cccc(N4CCOCC4)c3)[C@@H]2c2ccc(C(F)(F)F)cc2)cc1 (relative stereo) [OC973] | 20 | 11.1 | 13.0 | 17.6 | 52.1 | 11.5 | 52.6 | 6720 | 0.95 |  |  |  |  |  |  | 
CN1CCN(c2cccc(NC(=O)[C@@H]3c4ccccc4C(=O)N(Cc4ccncc4)[C@H]3c3ccc(C(F)(F)F)cc3)c2)CC1 (relative stereo) [OC975] | 67 | 13.9 | 11.8 | 10.4 | 49.9 | 10.5 | 51.4 | 4340 | 0.17 |  |  |  |  |  |  | 
CN1CCN(c2cccc(NC(=O)[C@@H]3c4ccccc4C(=O)N(Cc4cccnc4)[C@H]3c3ccc(C(F)(F)F)cc3)c2)CC1 (relative stereo) [OC976] | 54 | 11.4 | 12.8 | 9.3 | 58.8 | 16.9 | 53.2 | 4720 | 27.1 |  |  |  |  |  |  | 
[NH2][Pt]([NH2])([Cl])[Cl] [CDDP, Cisplatin, reference compound] |  |  |  |  |  |  |  |  |  | 79.2 | 14 | 242 ± 182 | −10.2 |  |  | 
Nc1ccc(-c2ccc3ncc4ccc(=O)n(-c5cccc(C(F)(F)F)c5)c4c3c2)cn1 [Torin2, reference compound] |  |  |  |  |  |  |  |  |  |  |  |  |  | 1.46 | inhibited or strongly reduced | inhibited
CCC(=O)N1CCN(c2ccc(-n3c(=O)ccc4cnc5ccc(-c6cnc7ccccc7c6)cc5c43)cc2C(F)(F)F)CC1 [Torin 1, reference compound] |  |  |  |  |  |  |  |  |  |  |  |  |  | 7.00 | inhibited or strongly reduced | inhibited
